According to US20150296781A1, “ACRYLATE/METHACRYLATE-BASED TRIBLOCK COPOLYMER/ANTHRANILIC DIAMIDE COMPOSITIONS FOR PROPAGULE COATING” (priority 2013, published 2015):

System: 2nd instar larva of Spodoptera frugiperda
Assay: Laboratory test with 2nd instar larva of Spodoptera frugiperda on maize leaves
Format: in vivo

CNC(=O)c1cc(Cl)cc(C)c1NC(=O)c1cc(Br)nn1-c1ncccc1Cl [Compound 2, 3-bromo-N-[4-chloro-2-methyl-6-[(methylamino)carbonyl]phenyl]-1-(3-chloro-2-pyridinyl)-1H-pyrazole-5-carboxamide]
concentration per g of leaf tissue resulting in 50% mortality within 72 h: 0.033 micrograms per g of leaf tissu
concentration per g of tissue needed to achieve 100% mortality within 72 h: 0.037 micrograms per g of tissue
